Measured values from patent publication US7119256B2, “Gene encoding acetolactate synthase” (priority 2000, dated 2006).

How the values were obtained:
[1] = test system: resistant mutant culture cells; test: Growth of bispyribac-sodium resistant rice culture cells (resistant mutant) with herbicide (relative wet weight); type: cell-based, Oryza sativa var. Kinmaze
Protocol: Subsequently, the resulting plurality of cell lines were cultured while elevating the concentration of bispyribac-sodium in an orderly manner. […] The bispyribac-sodium resistant culture cells (hereinafter referred to as resistant mutant) were sub-cultured on MS-2,4-D solid media supplemented with 100 μM bispyribac-sodium. Part of the sub-cultured resistant mutant was sampled, added into MS-2,4-D liquid media not supplemented with bispyribac-sodium, and then subjected to suspended cell culture at a cycle of 8 to 10 days.
Approximately 1.5 g (wet weight) of the resistant mutant was transplanted in 200 ml of a Erlenmeyer flask supplemented with 50 ml of a MS-2,4-D liquid medium and bispyribac-sodium at an appropriate concentration, followed by culturing at approximately 27° C. for an appropriate period. The wet weight of the callus was measured periodically. The relative amount of increase was determined based on the wet weight of the transplanted resistant mutant. In addition, the experiment was performed three times with different bispyribac-sodium concentrations, and the standard error was calculated. […] As a control, a similar experiment was conducted using the wild type (Kinmaze).
The growth rates of the wild type and the resistant mutant were measured as described above except for the use of chlorsulfuron instead of bispyribac-sodium.

S627I mutant ALS = molecular target: T1, S627I mutant ALS (Oryza sativa subsp. japonica, UniProt Q6K2E8, S627I); test: Herbicide sensitivity of crude ALS with S627I mutation only, 1 mM valine; type: biochemical, rice; details: crude enzyme
T1 construct: one type of cDNA containing a full length ALS gene could be obtained from a cDNA library derived from the wild type; made in house; host or cells: E. coli JM 109, pGEX-2T backbone; crude enzyme solution
Protocol: A plasmid having W548L mutant ALS gene or a plasmid having S627I mutant ALS gene was transformed into E. coli strain JM 109. The colonies obtained from transformation were subjected to liquid culture, expression of GST induction protein was induced in the same manner as in Examples 4 and 5, a crude enzyme solution was prepared, and then herbicide sensitivity of ALS was examined in the presence of 1 mM valine.

mutant ALS protein = mutant ALS protein (Oryza sativa subsp. japonica, UniProt Q6K2E8, S627I/W548L); test: Herbicide sensitivity of crude mutant ALS (W548L and S627I) expressed in E. coli, in presence of valine; type: biochemical, rice; parameters: the cDNA containing a full length mutant ALS gene could be obtained; made in house; host or cells: E. coli JM 105, pGEX-4T-3; crude enzyme solution; details: crude enzyme from E. coli, valine added
Protocol: Preparation and purification of ALS from E. coli were performed by the following method. First, a pellet of the transformant E. coli stored at −80° C. was suspended in ALS extraction buffer (potassium phosphate buffer (pH 7.5) containing 30% glycerol and 0.5 mM MgCl2). Specifically, 2.5 ml of the buffer was added to the pellet obtained from 50 ml of the culture solution. The suspension was subjected to ultrasonication (Heat Systems-Ultrasonics, Sonicator W-225R, micro chip, output control 8, interval of approximately 1 sec, twice (40 sec each)), and subjected to centrifugation at 15000×g, 4° C. for 20 min, thereby obtaining the supernatant as a crude enzyme solution.
Herbicide sensitivity of mutant ALS protein was examined using the crude enzyme solution obtained in Example 4. Herbicide sensitivity test was performed in the manner same as that in Example 2. In the herbicide sensitivity test, three herbicides, bispyribac-sodium, pyrithiobac-sodium, and pyriminobac were used as PC herbicides; four drugs, chlorsulfuron, bensulfuron-methyl, pyrazosulfuron-ethyl and imazosulfuron were used as sulfonylurea herbicides; and two drugs, imazaquin, and imazapyr were used as imidazolinon herbicides.
Solutions containing these herbicides at certain concentrations (bispyribac-sodium and pyrithiobac-sodium were aqueous solutions, others were acetone solutions) were added to reaction solutions before addition of the mutant ALS protein. The final concentration of acetone was 1%. In addition, since an ALS protein from the rice cDNA expressed within E. coli is insusceptible to valine (Kil et al., J. Biochem. Mol. Biol. 31 287–295, 1998), a herbicide sensitivity test was performed under conditions in which ALS activity derived from E. coli was inhibited with valine.

mutant ALS protein, sequence (Q6K2E8 44-644 W548L/S627I): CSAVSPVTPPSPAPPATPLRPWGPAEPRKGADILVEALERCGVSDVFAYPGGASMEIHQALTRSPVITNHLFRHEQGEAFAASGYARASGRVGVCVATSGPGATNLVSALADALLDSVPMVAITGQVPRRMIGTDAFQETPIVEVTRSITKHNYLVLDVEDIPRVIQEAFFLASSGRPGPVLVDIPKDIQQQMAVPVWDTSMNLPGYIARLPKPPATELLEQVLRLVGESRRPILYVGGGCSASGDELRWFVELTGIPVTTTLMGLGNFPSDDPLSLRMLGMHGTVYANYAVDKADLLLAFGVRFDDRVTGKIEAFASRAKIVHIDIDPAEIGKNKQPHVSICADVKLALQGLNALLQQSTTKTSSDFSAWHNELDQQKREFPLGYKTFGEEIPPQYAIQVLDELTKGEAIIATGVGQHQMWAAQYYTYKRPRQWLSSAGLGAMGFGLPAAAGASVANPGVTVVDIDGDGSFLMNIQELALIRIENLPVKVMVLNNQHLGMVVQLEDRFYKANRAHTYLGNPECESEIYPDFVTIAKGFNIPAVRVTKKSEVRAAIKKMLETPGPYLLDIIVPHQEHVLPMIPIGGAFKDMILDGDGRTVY
T1 sequence (Q6K2E8 44-644 S627I): as the sequence (Q6K2E8 44-644 W548L/S627I) above, with L505W counted along it

SMILES: COc1cc(OC)nc(Oc2cccc(Oc3nc(OC)cc(OC)n3)c2C(=O)[O-])n1.[Na+] [Bispyribac-sodium, bispyribac-sodium]
- growth of the resistant mutant (relative weight on day 8) ([1]; 10 μM bispyribac-sodium): almost none of the growth of the resistant mutant was affected
- proliferation of resistant cell lines in the presence of herbicide ([1]; 100 μM bispyribac-sodium): can proliferate
- resistance imparted by S627I mutation alone (S627I mutant ALS): imparted resistance
- mutant ALS activity in the presence of herbicide (mutant ALS protein): not inhibited at all
- resistance of the mutant ALS protein to herbicide compared to wild type ALS protein (mutant ALS protein): best resistance

SMILES: COc1nc(C)nc(NC(=O)NS(=O)(=O)c2ccccc2Cl)n1 [Chlorsulfuron, chlorsulfuron]
- growth of the resistant mutant (relative weight on day 9) ([1]; 1 μM chlorsulfuron): strongly inhibited
- resistance imparted by S627I mutation alone (S627I mutant ALS): imparted no obvious resistance
- resistance of the mutant ALS protein to herbicide compared to wild type ALS protein (mutant ALS protein): moderate
